Experimental data from patent publication US5968526A, “T cell epitopes of the major allergens from Dermatophagoides (house dust mite)” (Immulogic Pharamaceutical Corporation, priority 1995, dated 1999).

Tests used:
Type in all cases: cell-based, human
[1] = tested on: T cell lines primed in vitro to Der p I; test: secondary proliferation of Der p I-primed T cell lines (Examples V, VII, XI); conditions: for T cell response to Der f I peptides / T cell response to selected Der f I peptides: Der p I primed; for T cell response to Der f I peptides: 14 positive experiments, FIG. 7; for T cell response to selected Der f I peptides: 30 positive experiments, FIG. 15a; for T cell response to selected Der p I peptides: FIG. 13; for positivity index (P.I.): mean S.I. × percent responders, 33 patients
Method: 10^7 PBMC from individual 543 were cultured in 10 ml RPMI-1640 containing 5% pooled human AB serum and supplemented with glutamine, penicillin, streptomycin and HEPES buffer in the presence of 20 μg/ml purified native Der p I/ml at 37° C. for 7 days. Viable cells were then purified by Ficoll-Hypaque centrifugation and cultured for 2 additional weeks in RPMI-1640/5% AB serum containing 5 units recombinant human IL-2/ml and 5 units recombinant human IL-4/ml. The resting T cells were then tested in a secondary proliferation assay to assess T cell responses to various house dust mite proteins and peptides. For assay, 2×10^4 resting T cells were cultured in 200 μl of RPMI-1640/5% AB serum for 3 days at 37° C. in the presence of 2×10^4 autologous Epstein-Barr virus transformed B cells (20,000 Rads) as antigen presenting cells with various concentrations of purified native Der p I or synthetic Der p I peptides. Each well then received 1 μCi tritiated thymidine for 16 hours. The counts incorporated were collected onto glass fiber filters and processed for liquid scintillation counting. Medium alone, acting as negative control, contained no allergen or peptide. The results of this experiment indicate that this particular patient responds with an S.I. of at least 2.0 to several peptides derived from the Der p I protein, including DP I-1, DP I-2, DP I-4, DP I-11, DP I-5, DP I-13, DP I-15, DP I-6.1, DP I-8, DP I-9, DP I-16, DP I-10 and DP I-17 (data not shown).
The above procedure was followed with a number of other house dust mite allergic individuals except a) in individual cases, the length of time of cultivation with IL-2 and IL-4 varied; b) in individual cases, the T cells were primed with either purified native (N) or recombinant (R) Der p I protein at either 20 μg/ml or 10 μg/ml; and c) in individual cases, x-irradiated (3500 Rads) autologous PBMC were used as antigen presenting cells in the secondary proliferation assay.
Individual results were considered positive and used if the individual responded to the Der p I protein and at least one peptide derived from Der p I at an S.I. of 2.0 or greater. The resting T cell lines primed with recombinant or native Der p I-stimulated PBMC were tested for reactivity to synthetic Der p I peptides. The maximum response for each peptide in a titration of the antigen is expressed as the T cell stimulation index (S.I.). The S.I. is the counts-per-minute (CPM) incorporated by cells in response to the peptide divided by the CPM incorporated by cells in medium only. […] However, only individual S.I. values greater than or equal to 2.0 (a response two-fold or greater over background), referred to herein as "positive" results, were used in calculating mean T cell stimulation indices for each peptide for the patient or group of patients tested. […] The T cell stimulation index is calculated by: [formula]
The bar represents the cumulative rank of the peptide response in the group of patients. To determine the cumulative rank, the 5 peptides with the highest S.I. in each individual were determined and assigned a numerical rank in descending order, with 5 representing the strongest response. The ranks for each peptide were then summed in the group of patients to determine the cumulative rank for the peptide. […] Given the percent positive and the mean T cell stimulation index, the positivity index (P.I.) for each peptide can be calculated.
The Der p I and Der f I proteins are very homologous (81% identity). Thus, experiments, similar to those of Example V, were carried out to determine the T cell responses of Der p I primed T cell lines when challenged with various Der p I peptides and substantially matching […].
The results of T cell studies using selected peptides derived from the Der p I, the Der f I, the Der p II and the Der f II proteins are shown in FIGS. 13-18a-d. […]

[2] = tested on: T cell lines primed in vitro to Der f I; test: secondary proliferation of Der f I-primed T cell lines (Examples VI, VII, XI); conditions: for T cell reactivity: overlapping Der f I peptides, 16 positive experiments, FIG. 6; for T cell response: patient 783, recombinant Der f I primed, data not shown; for stimulation index, rank in group: 9 patients, FIG. 16a / 16b
Method: Experiments similar to those of Example V were performed to determine. the T cell-reactive areas of the Der f I protein. For example, PBMC from house dust mite-allergic patient 783 were isolated as described in Example V and were stimulated in vitro-- with recombinant purified Der f I at 20 μg/ml. The results of the proliferation assay with Der f I peptides using x-irradiated (3500 Rads) autologous PBMC as antigen presenting cells indicate that T cells from this patient respond to the peptides DF I-8.1, DF I-9, DF I-6, DF I-10, DF I-2.1, DF I-3, DF I-11, DF I-5, DF I-1, and DF I-17 (data not shown).
The above procedure was followed in a number of patients except in individual cases, T cell lines were primed with affinity purified Der f I at 20 μg/ml or at 10 μg/ml and x-irradiated (25,000 Rads) autologous Epstein-Barr virus transformed B cells were used as antigen presenting cells. […]
Similarly, the procedure described in Example VI was followed with T cell lines from 9 patients primed in vitro to the Der f I protein then analyzed for response to selected peptides derived from the protein. The data was analyzed as described in Example VI. […]

[3] = tested on: T cell lines primed in vitro to Der p II; test: secondary proliferation of Der p II-primed T cell lines (Examples VIII, X, XI); conditions: for T cell reactivity: overlapping Der p II peptides, FIG. 9; for T-cell reactivity (DPII-22 series development): Der p II T-cell map and analogs
Method: Experiments similar to those of Example V were performed to determine the T cell-reactive areas of the Der p II protein. For example, PBMC from house dust mite-allergic patient 348 were isolated as described in Example V and were stimulated in vitro with 20 μg/ml purified native Der p II.
The above procedure was followed with a number of patients except in individual cases, T cell lines were primed with recombinant Der p II at 20 μg/ml or at 3 μg/ml and x-irradiated (3500 Rads) autologous PBMC were used as antigen-presenting cells. The data was analyzed as described in Example V, except the ranked sum of peptide responses was analyzed assigning a value of 3, 2 or 1 to the three highest S.I. responses.
A study similar to that described in Example VII was carried out to determine the T cell cross-reactivity of the Der p II and Der f II proteins. T cells primed with the Der f II protein were challenged with various Der f II peptides and a set of substantially matching Der p II peptides.
Another experiment following the procedure described in Example VIII analyzed the response of 29 patients primed in vitro to the Der p II protein and challenged with selected peptides derived from the Der p II sequence.

DF I-1: Der f I peptide, amino acid residues 1-20 (TSACRINSVNVPSELDLRSLR)
T cell response to Der f I peptides [1]: respond significantly
T cell reactivity [2]: significant areas of T cell reactivity
T cell response [2]: respond

DF I-2.1: Der f I peptide (ELDLRSLRTVTPIRMQGGCGSCWAFSG)
T cell response [2]: respond

DF I-3: Der f I peptide (TVTPIRMQGGCGSCWAFSGVAATESAYLA)
T cell response to Der f I peptides [1]: respond significantly
T cell reactivity [2]: significant areas of T cell reactivity
T cell response [2]: respond

DF I-4: Der f I peptide (VAATESAYLAYRNTSLDLSEQ)
T cell response to Der f I peptides [1]: respond significantly
T cell reactivity [2]: significant areas of T cell reactivity

DF I-5: Der f I peptide (GDTIPRGIEYIQQNGVVEERSYPYVARE)
T cell reactivity [2]: significant areas of T cell reactivity
T cell response [2]: respond

DF I-6: Der f I peptide (YPPDVKQIREALFQTHTAIAVIIG)
T cell response to Der f I peptides [1]: respond significantly
T cell reactivity [2]: significant areas of T cell reactivity
T cell response [2]: respond

DF I-7: Der f I peptide (TQTHTAIAVIIGIKDLRAFQHYDGRT)
T cell reactivity [2]: significant areas of T cell reactivity

DF I-8.1: Der f I peptide (IKDLRAFQHYDGRTIIQHDNGYQPNY)
T cell reactivity [2]: significant areas of T cell reactivity
T cell response [2]: respond

DF I-10: Der f I peptide (QGDDYWIVRNSWDTTWGDSGYGYF)
T cell response [2]: respond

DF I-11: Der f I peptide (YRNTSLDLSEQELVDCASQHGC)
T cell response to Der f I peptides [1]: respond significantly
T cell reactivity [2]: significant areas of T cell reactivity
T cell response [2]: respond

DF I-12: Der f I peptide (ELVDCASQHGCHGDTIPRGIE)
T cell response to Der f I peptides [1]: respond significantly

DF I-14: Der f I peptide (QRCRRPNSQHYGISNYCQI)
T cell reactivity [2]: significant areas of T cell reactivity

DF I-15: Der f I peptide (HYGISNYCQIYPPDVKQIREAL)
T cell response to Der f I peptides [1]: respond significantly

DF I-17: Der f I peptide (GDSGYGYFQAGNNLMMIEQYPYVVIM)
T cell response [2]: respond

DF I-21.1: Der f I peptide (TSACRINSVNVPSELDLRSLRTVTPIRMQ)
T cell response to selected Der f I peptides [1]: respond significantly

DF I-21.2: Der f I peptide (RINSVNVPSELDLRSLRTVTPIRMQ)
T cell response to selected Der f I peptides [1]: respond significantly

DF I-22.1: Der f I peptide (AFSGVAATESAYLAYRNTSLDLSEQELVD)
stimulation index, rank in group [2]: highest stimulation indexes

DF I-23.1: Der f I peptide (EYIQQNGVVEERSYPYVAREQRCRRPNSQ)
T cell response to selected Der f I peptides [1]: respond significantly

DF I-23.2: Der f I peptide (DTIPRGIEYIQQNGVVEERSYPYVAREQR)
T cell response to selected Der f I peptides [1]: respond significantly

DF I-25.1: Der f I peptide (QIYPPDVKQIREALTQTHTAIAVIIGIKD)
T cell response to selected Der f I peptides [1]: respond significantly
stimulation index, rank in group [2]: highest stimulation indexes

DF I-26.1: Der f I peptide (IIGIKDLRAFQHYDGRTIIQHDNGYQ)
T cell response to selected Der f I peptides [1]: respond significantly

DF I-27.1: Der f I peptide (HDNGYQPNYHAVNIVGYGSTQGDDY)
T cell response to selected Der f I peptides [1]: respond significantly

DF II-18: Der f II peptide (DAKYTWNVPKIAPKSENVVVTVKLVG)
T cell response to Der f II peptides ([3]; Der p II primed, 26 positive experiments, FIG. 12): respond significantly

DP I-5: Der p I peptide (GDTIPRGIEYIQHNGVVQESYYRYVARE)
T cell reactivity ([1]; overlapping Der p I peptides, 33 positive experiments): significant regions of T cell reactivity
T cell response to Der p I peptides ([2]; Der f I primed, 8 positive experiments, FIG. 8): respond significantly

DP I-22.1: Der p I peptide (AFSGVAATESAYLAHRNQSLDLAEQELVD)
T cell response to selected Der p I peptides ([1]; 33 positive experiments): respond significantly

DP I-23.2: Der p I peptide (DTIPRGIEYIQHNGVVQESYYRYVAREQS)
T cell response to selected Der p I peptides ([1]; 33 positive experiments): respond significantly
positivity index (P.I.) [1]: at least 150

DP I-25.2: Der p I peptide (QIYPPNANKIREALAQTHSAIA)
T cell response to selected Der p I peptides ([1]; 33 positive experiments): respond significantly
positivity index (P.I.) [1]: at least 150

DP I-28.1: Der p I peptide (NIVGYSNAQGVDYWIVRNSWDTNWGDNGY)
T cell response to selected Der p I peptides ([1]; 33 positive experiments): respond significantly

DP II-2: Der p II peptide (HEIKKVLVPGCHGSEPCIIHRGKPF)
T cell reactivity ([3]; 26 positive experiments): significant T cell reactivity
T cell response ([3]; patient 348, native Der p II primed, data not shown): responds well

DP II-3.1: Der p II peptide, native sequence (HGSEPCIIHRGKPFQLEAVFEANQNTKTA)
difference in mean S.I. or percentage of positive responses, original vs additional (native sequence) peptides ([3]; DP II-3 vs DP II-3.1): no significant difference
T-cell reactivity (DPII-22 series development) [3]: high T-cell reactivity

DP II-3: Der p II peptide with a low number of conservative changes from the native sequence (HGSEPCIIHRGKPFQLEAVFEAVQNTKTA)
T cell reactivity ([3]; 26 positive experiments): significant T cell reactivity

DP II-5: Der p II peptide (KIEIKASIDGLEVDVPGIDPNACHYMK)
T-cell reactivity (DPII-22 series development) [3]: high T-cell reactivity
